Our source for the TGI values is PubChem BioAssay (NCI).

The structures appear in SMILES notation.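 Assay format: 96-well plates, 48-hour exposure. The concentration for full growth arrest is given as TGI.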

The assay concerns P388 leukemia. As to the kind of experiment: NCI tumour cell line growth inhibition, 48 h.

Regarding `CCCS(=O)c1nc(COC(=O)NC)c(COC(=O)NC)n1C` (configuration not stated), the TGI is above 100 µM.

For the compound `COc1cc(C2c3cc4c(cc3[C@@H](Nc3ccc([N+](=O)[O-])cc3)C3COC(=O)[C@H]23)OCO4)cc(OC)c1O` (some centres not stated), the TGI was above 100 µM.
